Activity calls are given as the source filed them. The rule behind the calls is not given here.
Assays:
[1] = Metabolic stability in cryopreserved human liver microsomes assessed as half life; assay type: ADME, Microsome
[2] = target: Serine/threonine-protein kinase 16 (Homo sapiens) (UniProt O75716); assay: Inhibition of human STK16 at 0.1 uM relative to control
[3] = target: Receptor-type tyrosine-protein kinase FLT3 (Homo sapiens) (UniProt P36888); assay: Inhibition of human FLT3 at 0.1 uM relative to control
[4] = AUC (0 to t) in Sprague-Dawley rat at 5 mg/kg, iv by LC-MS/MS analysis; assay type: ADME, organism-based; parameters: dose 5 mg/kg; conditions: in vivo
[5] = MRT (0 to t) in Sprague-Dawley rat at 5 mg/kg, iv by LC-MS/MS analysis; assay type: ADME, organism-based; conditions: in vivo
[6] = Half life in Sprague-Dawley rat at 5 mg/kg, iv by LC-MS/MS analysis; assay type: ADME, organism-based; conditions: in vivo
[7] = Clearance in Sprague-Dawley rat at 5 mg/kg, iv by LC-MS/MS analysis; assay type: ADME, organism-based; conditions: in vivo
[8] = Volume of distribution at steady state in Sprague-Dawley rat at 5 mg/kg, iv by LC-MS/MS analysis; assay type: ADME, organism-based; conditions: in vivo
[9] = Cmax in Sprague-Dawley rat at 5 mg/kg, iv by LC-MS/MS analysis; assay type: ADME, organism-based; parameters: route intravenous, dose 5 mg/kg; conditions: in vivo
[10] = AUC (0 to t) in Sprague-Dawley rat at 20 mg/kg, po by LC-MS/MS analysis; assay type: ADME, organism-based; parameters: dose 20 mg/kg; conditions: in vivo
[11] = MRT (0 to t) in Sprague-Dawley rat at 20 mg/kg, po by LC-MS/MS analysis; assay type: ADME, organism-based; conditions: in vivo
[12] = Half life in Sprague-Dawley rat at 20 mg/kg, po by LC-MS/MS analysis; assay type: ADME, organism-based; conditions: in vivo
[13] = Cmax in Sprague-Dawley rat at 20 mg/kg, po by LC-MS/MS analysis; assay type: ADME, organism-based; parameters: route oral, dose 20 mg/kg; conditions: in vivo
[14] = Tmax in Sprague-Dawley rat at 20 mg/kg, po by LC-MS/MS analysis; assay type: ADME, organism-based; conditions: in vivo
[15] = Oral bioavailability in Sprague-Dawley rat at 20 mg/kg by LC-MS/MS analysis; assay type: ADME, organism-based; conditions: in vivo
[16] = system: Mus musculus; assay: Anti-ulcerative colitis activity in DSS-induced C57BL/6 mouse ulcerative colitis model assessed as recovery of body weight at 10 to 20 mg/kg, po administrated for 6 days measured on day 9; assay type: functional, organism-based; conditions: dose 10-20 mg/kg, time 6.0 day
[17] = system: Mus musculus; assay: Anti-ulcerative colitis activity in DSS-induced C57BL/6 mouse ulcerative colitis model assessed as reduction in fecal occult blood at 10 to 20 mg/kg, po administrated for 6 days measured on day 9; assay type: functional, organism-based; conditions: dose 10-20 mg/kg, time 6.0 day
[18] = system: Mus musculus; assay: Anti-ulcerative colitis activity in DSS-induced C57BL/6 mouse ulcerative colitis model assessed as reduction in watery stool at 10 to 20 mg/kg, po administrated for 6 days measured on day 9; assay type: functional, organism-based; conditions: dose 10-20 mg/kg, time 6.0 day
[19] = system: Mus musculus; assay: Anti-ulcerative colitis activity in DSS-induced C57BL/6 mouse ulcerative colitis model assessed as increase in colon length at 10 to 20 mg/kg, po administrated for 6 days measured on day 9; assay type: functional, organism-based; conditions: dose 10-20 mg/kg, time 6.0 day
[20] = system: Mus musculus; assay: Anti-ulcerative colitis activity in DSS-induced C57BL/6 mouse ulcerative colitis model assessed as recovery of colon epithelial and mucosal structure at 20 mg/kg, po administrated for 6 days measured on day 9 by microscopy based histopathological analysis; assay type: functional, organism-based; conditions: time 6.0 day
[21] = system: Mus musculus; assay: Anti-ulcerative colitis activity in DSS-induced C57BL/6 mouse ulcerative colitis model assessed as recovery of colon crypts at 20 mg/kg, po administrated for 6 days measured on day 9 by microscopy based histopathological analysis; assay type: functional, organism-based; conditions: time 6.0 day
[22] = system: Mus musculus; assay: Anti-inflammatory activity in DSS-induced C57BL/6 mouse ulcerative colitis model assessed as suppression of IL-6 content in colon tissue at 20 mg/kg, po administrated for 6 days measured on day 9; assay type: functional, organism-based; conditions: time 6.0 day
[23] = system: Mus musculus; assay: Anti- inflammatory activity in DSS-induced C57BL/6 mouse ulcerative colitis model assessed as suppression of IL-6 content in serum at 20 mg/kg, po administrated for 6 days measured on day 9; assay type: functional, organism-based; conditions: time 6.0 day
[24] = system: Mus musculus; assay: Anti-inflammatory activity in DSS-induced C57BL/6 mouse ulcerative colitis model assessed as suppression of TNFalpha content in colon tissue at 20 mg/kg, po administrated for 6 days measured on day 9; assay type: functional, organism-based; conditions: time 6.0 day
[25] = system: Mus musculus; assay: Anti-inflammatory activity in DSS-induced C57BL/6 mouse ulcerative colitis model assessed as suppression of TNFalpha content in serum at 20 mg/kg, po administrated for 6 days measured on day 9; assay type: functional, organism-based; conditions: time 6.0 day
[26] = system: Mus musculus; assay: Anti-inflammatory activity in DSS-induced C57BL/6 mouse ulcerative colitis model assessed as increase in IL-10 content in colon tissue at 20 mg/kg, po administrated for 6 days measured on day 9; assay type: functional, organism-based; conditions: time 6.0 day
[27] = system: Mus musculus; assay: Anti-inflammatory activity in DSS-induced C57BL/6 mouse ulcerative colitis model assessed as increase in IL-10 content in serum at 20 mg/kg, po administrated for 6 days measured on day 9; assay type: functional, organism-based; conditions: time 6.0 day

Sequence of Receptor-type tyrosine-protein kinase FLT3 (Homo sapiens) (P36888 whole entry): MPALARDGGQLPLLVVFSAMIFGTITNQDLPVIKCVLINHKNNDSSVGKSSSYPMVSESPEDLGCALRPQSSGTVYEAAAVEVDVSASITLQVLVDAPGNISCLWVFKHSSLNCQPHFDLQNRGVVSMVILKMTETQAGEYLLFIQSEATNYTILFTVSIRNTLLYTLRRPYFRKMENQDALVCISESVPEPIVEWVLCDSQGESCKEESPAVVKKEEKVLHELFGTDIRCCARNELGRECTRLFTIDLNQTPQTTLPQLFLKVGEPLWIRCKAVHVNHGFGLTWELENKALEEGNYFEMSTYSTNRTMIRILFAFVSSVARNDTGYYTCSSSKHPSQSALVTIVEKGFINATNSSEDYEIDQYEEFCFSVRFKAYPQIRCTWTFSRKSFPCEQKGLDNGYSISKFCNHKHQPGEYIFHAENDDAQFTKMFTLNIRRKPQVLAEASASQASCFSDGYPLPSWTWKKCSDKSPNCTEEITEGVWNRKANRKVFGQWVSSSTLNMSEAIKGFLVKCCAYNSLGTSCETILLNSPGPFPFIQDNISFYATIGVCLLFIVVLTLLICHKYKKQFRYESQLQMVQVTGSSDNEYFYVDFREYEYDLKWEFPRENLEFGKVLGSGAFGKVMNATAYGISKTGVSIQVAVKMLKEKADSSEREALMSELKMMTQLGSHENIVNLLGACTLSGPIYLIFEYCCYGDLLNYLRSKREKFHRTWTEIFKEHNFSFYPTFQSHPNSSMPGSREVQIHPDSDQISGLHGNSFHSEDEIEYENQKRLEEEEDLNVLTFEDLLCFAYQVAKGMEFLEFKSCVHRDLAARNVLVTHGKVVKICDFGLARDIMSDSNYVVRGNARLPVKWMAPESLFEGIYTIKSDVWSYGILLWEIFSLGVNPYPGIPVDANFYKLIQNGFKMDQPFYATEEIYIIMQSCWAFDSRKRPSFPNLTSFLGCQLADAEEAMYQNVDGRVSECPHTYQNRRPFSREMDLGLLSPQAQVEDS
Sequence of Serine/threonine-protein kinase 16 (Homo sapiens) (O75716 whole entry): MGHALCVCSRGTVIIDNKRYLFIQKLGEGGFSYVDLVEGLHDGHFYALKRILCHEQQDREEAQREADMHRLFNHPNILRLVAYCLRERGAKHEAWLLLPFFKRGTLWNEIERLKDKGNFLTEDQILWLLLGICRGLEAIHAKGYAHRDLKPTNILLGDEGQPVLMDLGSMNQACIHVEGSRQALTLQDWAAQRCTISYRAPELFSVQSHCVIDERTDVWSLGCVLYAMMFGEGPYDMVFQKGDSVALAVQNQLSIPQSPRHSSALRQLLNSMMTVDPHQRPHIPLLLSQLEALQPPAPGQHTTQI

half-life [1]: 2.03 h | inhibition [2]: inactive | inhibition [3]: 32% | AUC(0-t) [4]: 29 ng·h/mL | MRT(t) [5]: 4.98 h | half-life [6]: 5.95 h | clearance [7]: 1.58 mL/min/kg | Vdss [8]: 0.985 L/kg | Cmax [9]: 48.5 ng/mL | AUC(0-t) [10]: 13.9 ng·h/mL | MRT last [11]: 2.76 h | half-life [12]: 3.64 h | Cmax [13]: 8 ng/mL | Tmax [14]: 1 h | bioavailability [15]: 12%
Structure (SMILES): N#CCCn1cc(-c2nc(Nc3ccc4c(ccn4S(=O)(=O)C(F)(F)F)c3)ncc2F)cn1
Activity [16]: Active | Activity [17]: Active | Activity [18]: Active | Activity [19]: Active | Activity [20]: Active | Activity [21]: Active | Activity [22]: Active | Activity [23]: Active | Activity [24]: Active | Activity [25]: Active | Activity [26]: Active | Activity [27]: Active

— ChEMBL document CHEMBL4825658, “Discovery of 3-(4-(2-((1H-Indol-5-yl)amino)-5-fluoropyrimidin-4-yl)-1H-pyrazol-1-yl)propanenitrile Derivatives as Selective TYK2 Inhibitors for the Treatment of Inflammatory Bowel Disease” (J Med Chem, 2021)
